Reference: PubChem BioAssay AID1549 (Sanford-Burnham Center for Chemical Genomics, 2009)
The source made the active and inactive calls. No rule for the calls is given here.

Target: Influenza A virus M2 proton channel (A/TW/4845/1999 H1N1)
Test: M2 proton channel binding, NMR based, influenza A virus H1N1 strain (AID 1549)
Details: NMR binding screen, M2 protein

Which Kd does the source give for COC1C=CC23c4cc5c(cc4CN(CC2O)[C@@H]3C1)OCO5 (stereo partly specified) here?
Its Kd is > 4 mM (inactive).

How did the Kd turn out when COc1ccc2ccc(=O)oc2c1 was run?
The Kd was > 4 mM (inactive).

With COc1cc([C@@H]2c3cc4c(cc3[C@H](OC(C)=O)[C@H]3COC(=O)[C@@H]23)OCO4)cc(OC)c1OC as the compound, how does the Kd read?
The Kd was > 4 mM (inactive).

Cc1nc(-c2cccc(-c3noc(C)n3)c2)no1 was tested. Which Kd did it give?
The Kd was > 4 mM (inactive).

How did the Kd turn out when NC(=O)CC1Nc2cccc3cccc(c23)NC1=O (stereo unspecified) was run?
The Kd was > 4 mM (inactive).

With O=C(O)C1CSC(c2ccccc2)N1 (stereo unspecified) as the compound, how does the Kd read?
The Kd was > 4 mM (inactive).

How did the Kd turn out when O=C(CO)N/N=C/c1ccccc1F was run?
Its Kd is > 4 mM (inactive).

How did the Kd turn out when NCc1ccc(N2CCOCC2)cc1 was run?
Its Kd is > 4 mM (inactive).

Which Kd does the source give for OCc1nccn1Cc1ccccc1 here?
Its Kd is > 4 mM (inactive).

How did the Kd turn out when Cc1nnsc1C(=O)Nc1cccc(S(N)(=O)=O)c1 was run?
The Kd was > 4 mM (inactive).

Which Kd does the source give for CC1=CC(=O)CC(C)(C)C1(O)/C=C/C(C)=C\C(=O)O (stereo unspecified) here?
The Kd was > 4 mM (inactive).

For FC(F)(F)c1nnc2ccc(N3CCOCC3)nn12, which Kd is on record?
The Kd was > 4 mM (inactive).

With Cc1nc2ccccc2c(=O)n1NC(=O)C1CCCCC1 as the compound, how does the Kd read?
Its Kd is > 4 mM (inactive).

How did the Kd turn out when CN1C(=O)c2ccc(N=C3NC(=O)CS3)cc2C1=O was run?
The Kd was > 4 mM (inactive).

For C=CC(=O)N1CC2CC(C1)c1cccc(=O)n1C2 (stereo unspecified), which Kd is on record?
The Kd was > 4 mM (inactive).

For NCCN=C1NS(=O)(=O)c2ccccc21, which Kd is on record?
Its Kd is > 4 mM (inactive).

For O=[N+]([O-])c1c[n+]([O-])n(-c2ccccc2)n1, which Kd is on record?
The Kd was > 4 mM (inactive).

For O=C(c1ccc(Cl)s1)N1CCOCC1, which Kd is on record?
Its Kd is > 4 mM (inactive).

For Cc1nc2c(=O)[nH]c3ccccc3c2o1, which Kd is on record?
The Kd was > 4 mM (inactive).

How did the Kd turn out when CC(=O)c1ccc[nH]1 was run?
The Kd was > 4 mM (inactive).

Which Kd does the source give for COC(=O)c1sccc1S(=O)(=O)N1CCCC1 here?
The Kd was > 4 mM (inactive).

With COc1ccc(-c2c(O)c3c(OC)c4c(cc3oc2=O)OC(C)(C)CC4)cc1 as the compound, how does the Kd read?
The Kd was > 4 mM (inactive).

How did the Kd turn out when OCc1ccc2ncccc2c1 was run?
The Kd was > 4 mM (inactive).

For CC1(C)C(=O)CC[C@@]2(C)C1C[C@@H](O)[C@@]1(C)C3=CC(=O)O[C@@H](c4ccoc4)[C@]3(C)CCC21 (stereo partly specified), which Kd is on record?
Its Kd is > 4 mM (inactive).

Which Kd does the source give for CC(=O)Nc1ccc(-c2cn3ccsc3n2)cc1 here?
The Kd was > 4 mM (inactive).

With Cc1cc(C(=O)Nc2nnc(C(F)(F)F)s2)no1 as the compound, how does the Kd read?
The Kd was > 4 mM (inactive).

For Cc1nc2ccccc2c(=O)n1N1C(=O)CCCC1=O, which Kd is on record?
Its Kd is > 4 mM (inactive).

How did the Kd turn out when Cc1nnc2sc(-c3csc4c3CCCC4)nn12 was run?
Its Kd is > 4 mM (inactive).

For COc1ccc(NC2=NCC(C)S2)cc1 (stereo unspecified), which Kd is on record?
The Kd was > 4 mM (inactive).

With Cn1nc(-c2cccs2)cc1N as the compound, how does the Kd read?
Its Kd is > 4 mM (inactive).

CNc1nc(SC)nc(N2CCOCC2)n1 was tested. Which Kd did it give?
The Kd was > 4 mM (inactive).

For COc1ccc(Cl)cc1-c1n[nH]c(=S)n1C, which Kd is on record?
Its Kd is > 4 mM (inactive).

CN1CCC(NC(=O)c2ccccc2[N+](=O)[O-])CC1 was tested. Which Kd did it give?
Its Kd is > 4 mM (inactive).

Which Kd does the source give for O=c1[nH]c(=O)n(-c2ccc(F)cc2)c(O)c1/C=C1/C=CC=N1 here?
Its Kd is > 4 mM (inactive).

Cc1nnc(Nc2ccc(S(N)(=O)=O)cc2)[nH]c1=O was tested. Which Kd did it give?
Its Kd is > 4 mM (inactive).

For CCc1noc(C)c1C(=O)Nc1ncc(C)s1, which Kd is on record?
The Kd was > 4 mM (inactive).

For O=C1NC(=O)C(C(=S)Nc2ccccc2)C(=O)N1, which Kd is on record?
Its Kd is > 4 mM (inactive).

How did the Kd turn out when NC1CCN(Cc2ccccc2)CC1 was run?
The Kd was > 4 mM (inactive).

Which Kd does the source give for COc1ccccc1/C=C/CN1CCOCC1 here?
Its Kd is > 4 mM (inactive).

COc1ccc(C)cc1-n1c(-c2ccncc2)n[nH]c1=S was tested. Which Kd did it give?
The Kd was > 4 mM (inactive).

For CSc1nc(C)cc(-n2ccc(=O)[nH]c2=O)n1, which Kd is on record?
Its Kd is > 4 mM (inactive).

With O=C(Nc1ccc2c(c1)OCO2)c1ccc(=O)[nH]n1 as the compound, how does the Kd read?
Its Kd is > 4 mM (inactive).

With Cc1cc(NC(=O)c2ccc3c(c2)OCO3)no1 as the compound, how does the Kd read?
Its Kd is > 4 mM (inactive).

With O=C(CSc1ncn[nH]1)c1ccccc1 as the compound, how does the Kd read?
The Kd was > 4 mM (inactive).

Which Kd does the source give for CC(=O)c1ccc2c(c1)OCCO2 here?
Its Kd is > 4 mM (inactive).

Which Kd does the source give for Cc1cccc(C)c1NC(=O)/C=C/C(=O)O here?
The Kd was > 4 mM (inactive).

Cc1cc(NC(=O)c2ccccc2C(=O)O)no1 was tested. Which Kd did it give?
Its Kd is > 4 mM (inactive).

O=C1NC(=O)/C(=C\c2ccco2)S1 was tested. Which Kd did it give?
The Kd was > 4 mM (inactive).

COc1ccc(CN2CCNC(=O)C2CC(=O)O)cc1C (stereo unspecified) was tested. Which Kd did it give?
The Kd was > 4 mM (inactive).

Which Kd does the source give for COc1ccc2c(c1OC)OC[C@@H](c1ccc(OC)c(OC)c1OC)C2 here?
The Kd was > 4 mM (inactive).

With Cc1occc1C(=O)N1CCC2(CC1)OCCO2 as the compound, how does the Kd read?
The Kd was > 4 mM (inactive).

CNC(=O)Nc1ccc(C(=O)NC)cc1 was tested. Which Kd did it give?
Its Kd is > 4 mM (inactive).

How did the Kd turn out when CS(=O)(=O)Nc1ccc(C(=O)N2CCCCC2)cc1 was run?
The Kd was > 4 mM (inactive).

O=C(/C(=N\O)n1cncn1)c1ccccc1Cl was tested. Which Kd did it give?
The Kd was > 4 mM (inactive).

With c1ccc2[nH]c(NCCN3CCOCC3)nc2c1 as the compound, how does the Kd read?
Its Kd is > 4 mM (inactive).

Which Kd does the source give for COC(=O)Nc1nnc(-c2ccncc2)s1 here?
Its Kd is > 4 mM (inactive).

Which Kd does the source give for O=C(O)c1cncc(-c2cccs2)c1 here?
Its Kd is > 4 mM (inactive).

CNc1nc(OC)nc(N2CCOCC2)n1 was tested. Which Kd did it give?
The Kd was > 4 mM (inactive).

CC(=O)OC1CCC2(C)C3CC(=O)C4(C)C(CC5OC6(CCC(C)CO6)[C@@H](C)C54)C3CC[C@H]2C1 (stereo partly specified) was tested. Which Kd did it give?
Its Kd is > 4 mM (inactive).

With Cc1ccc(S(=O)(=O)/N=C2\NC(=O)CS2)cc1 as the compound, how does the Kd read?
Its Kd is > 4 mM (inactive).

With O=C(O)CN1CCNCC1 as the compound, how does the Kd read?
Its Kd is > 4 mM (inactive).

How did the Kd turn out when CC[C@H](CCC(C)[C@H]1CCC2C3CCC4C[C@@H](O)CC[C@]4(C)C3CC[C@@]21C)C(C)C (stereo partly specified) was run?
The Kd was > 4 mM (inactive).

Which Kd does the source give for NC(CC(=O)O)c1ccccc1 (stereo unspecified) here?
The Kd was > 4 mM (inactive).

CC1=C(C(N)=O)C(c2ccco2)C(C(N)=O)=C(C)N1 was tested. Which Kd did it give?
Its Kd is > 4 mM (inactive).

For CCc1ccccc1NC(=O)c1ccoc1C, which Kd is on record?
Its Kd is > 4 mM (inactive).

How did the Kd turn out when NCc1ccc(-n2cccc2)cc1 was run?
The Kd was > 4 mM (inactive).

For C=C1C2CC[C@@]3(C)[C@H](c4ccoc4)OC(=O)C[C@]13O[C@H]1C[C@H](OC(C)=O)C(C)(C)[C@H](CC(=O)OC)[C@@]21C, which Kd is on record?
The Kd was > 4 mM (inactive).

How did the Kd turn out when CN1CCN(C(=S)NC(=O)c2ccn(C)n2)CC1 was run?
Its Kd is > 4 mM (inactive).

O=C(O)CCn1cncn1 was tested. Which Kd did it give?
Its Kd is > 4 mM (inactive).

How did the Kd turn out when CN(C)C(=O)C12CCC(C)(C(=O)O1)C2(C)C (stereo unspecified) was run?
Its Kd is > 4 mM (inactive).

CC1NC(C(=O)O)Cc2c1[nH]c1ccccc21 (stereo unspecified) was tested. Which Kd did it give?
The Kd was > 4 mM (inactive).

NC(=O)c1oc2ccccc2c1N was tested. Which Kd did it give?
Its Kd is > 4 mM (inactive).

Which Kd does the source give for CC(=O)c1cc2c(s1)SCC(=O)N2 here?
The Kd was > 4 mM (inactive).

For COc1ccc(N2C(=N)C(C)(C)NC2=O)cc1, which Kd is on record?
The Kd was > 4 mM (inactive).

With COCC(=O)Nc1cccc(Br)c1 as the compound, how does the Kd read?
The Kd was > 4 mM (inactive).

With CC1(C)Cc2c(C#N)c(N)n(-c3ccccc3)c(=O)c2CO1 as the compound, how does the Kd read?
Its Kd is > 4 mM (inactive).

How did the Kd turn out when Cc1cc(=O)[nH]c(N2CCN(Cc3ccccc3)CC2)n1 was run?
Its Kd is > 4 mM (inactive).

How did the Kd turn out when Cc1nnc(N2CCc3ccccc3C2)[nH]c1=O was run?
The Kd was > 4 mM (inactive).

How did the Kd turn out when O=[N+]([O-])c1cccc(-c2c[n+](=O)c3c(n2[O-])CCC3)c1 was run?
The Kd was > 4 mM (inactive).

How did the Kd turn out when CN1CCCn2c1nc1c2c(=O)[nH]c(=O)n1C was run?
Its Kd is > 4 mM (inactive).

For O=c1c2ccccc2ncn1C1CCCCC1, which Kd is on record?
The Kd was > 4 mM (inactive).

Nc1nc(-c2ccc(F)c(F)c2)cs1 was tested. Which Kd did it give?
The Kd was > 4 mM (inactive).

How did the Kd turn out when Cn1cccc1C=C1C(=O)NC(=S)NC1=O was run?
The Kd was > 4 mM (inactive).

For CN1CCC(NC(=O)C2CCCO2)CC1 (stereo unspecified), which Kd is on record?
Its Kd is > 4 mM (inactive).

How did the Kd turn out when CCNCC(O)c1ccc([N+](=O)[O-])cc1 (stereo unspecified) was run?
Its Kd is > 4 mM (inactive).

Which Kd does the source give for Cc1nc(-c2ccccc2)sc1CO here?
The Kd was > 4 mM (inactive).
